Literature values, collected in patent US20050271673A1, “Trifunctional reagent for conjugation to a biomolecule” (priority 1998, published 2005).

Key:
streptavidin = streptavidin (Streptomyces avidinii, UniProt P22629); conditions: association constant; Green 1990, 1975
avidin = avidin (Gallus gallus, UniProt P02701); conditions: association constant; Green 1990, 1975
Sequence of avidin (P02701 25-152, species assumed): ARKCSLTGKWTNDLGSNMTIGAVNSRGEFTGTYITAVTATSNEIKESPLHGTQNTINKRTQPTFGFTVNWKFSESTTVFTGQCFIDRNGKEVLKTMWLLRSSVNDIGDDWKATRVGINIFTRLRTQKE

Sequence of streptavidin (P22629 25-183, species assumed): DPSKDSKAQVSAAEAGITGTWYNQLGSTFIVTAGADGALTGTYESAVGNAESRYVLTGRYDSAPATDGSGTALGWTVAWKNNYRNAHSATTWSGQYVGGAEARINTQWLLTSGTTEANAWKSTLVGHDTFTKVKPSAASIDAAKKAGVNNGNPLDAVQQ

Compound: O=C(O)CCCC[C@@H]1SC[C@@H]2NC(=O)N[C@@H]21 [biotin]
- K (binding constant of biotin with streptavidin) (streptavidin): 1013 to 1015 M⁻¹
- K (binding constant of biotin with avidin) (avidin): 1013 to 1015 M⁻¹
